The values that follow are results of earlier work, collected in article PMC7651685 (Psychopharmacology, 2020).

Data set [1] has as its system dopamine efflux in the nucleus accumbens. More on the design: method as in Rowley et al. [2017]. Particulars: rat nucleus accumbens microdialysis; ref Rowley et al. [2017]; cited from earlier work.
For a further data set, the system named is DAT. The settings on record: ref Markowitz et al. [2006]; read-out: Affinity for DAT, IC50; cited from earlier work.
For data set [2] the following is noted: no reference given; cited from earlier work.

pIC50: −log10 of the molar value.

Consider `C[C@H](N)Cc1ccccc1` [d-amphetamine], for which, in data set [1], the “Time of peak of dopamine efflux” value is 40 min.

For `COC(=O)[C@H](c1ccccc1)[C@H]1CCCCN1` [d-threo methylphenidate, reference compound], the negative-log IC50 (pIC50) (in general, the IC50 on a negative log10 scale, so that one unit is a factor of ten) in the data set with DAT is […].

For `CC(C)(N)Cc1ccccc1` [phentermine], the “Time of peak of dopamine efflux” value in data set [1] was 40 min.

`O=C(O)C(c1ccccc1)C1CCCCN1` (stereo not shown) [ritalinic acid]: the Pharmacological activity result in data set [2] was “pharmacologically inactive”.
